# Source: publication PMC12381781, “Structural and functional insights into the selective inhibition of mutant tau aggregation by purpurin and oleocanthal in frontotemporal dementia” (Protein Science : A Publication of the Protein Society, 2025)
# “Also recorded” adds a separate entry of the source.
# Key:
# R2R3 (N279K) tau peptide = R2R3 (N279K) tau peptide (Homo sapiens, UniProt P10636, N596K); assay: ThT aggregation assay of monomeric R2R3 (N279K) peptide; format: biochemical; details: for ThT-stained aggregates, confocal imaging: R2R3 N279K, end of ThT assay
# Sequence of R2R3 (N279K) tau peptide (P10636 592-653 N596K): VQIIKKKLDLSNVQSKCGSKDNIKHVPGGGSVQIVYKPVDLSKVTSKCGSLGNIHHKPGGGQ
# Protocol: The aggregation kinetics of tau peptides were monitored using a ThT assay. A 40 μL reaction mixture containing 15 μM ThT (Sigma‐Aldrich, Cat. # T3516‐5G) and 50 μM peptide in the absence (control) or presence of 0.1 μM, 1 μM, and 10 μM PUR or OLC was prepared on ice in aggregation buffer (20 mM Tris [pH 7.4], 100 mM NaCl, 1 mM ethylenediaminetetraacetic acid [EDTA]) containing 5 μM heparin (Sigma‐Aldrich, Cat. #H4784). dithiothreitol (DTT) was excluded to avoid its differential effects on the aggregation kinetics of tau peptides containing Cys291 or Cys322 and to prevent peroxide generation by redox‐active compounds like PUR, which can lead to oxidative artifacts and false‐positive inhibition signals, as reported in our previous study (Annadurai, Malina, Salmona, et al., [2022]). This mixture was then dispensed into a clear‐bottom, black 384‐well ViewPlate (Revvity, Waltham, MA, United States; Part # 6007460) and sealed with a TopSealA‐PLUS (Revvity) to prevent evaporation.
# Aggregation was monitored using EnSpire Multimode Plate Reader (Revvity) at 37°C with constant agitation (1000 rpm). To minimize condensation, the upper heater temperature was set to 2°C higher than the lower heater temperature. ThT fluorescence (ThT—λ ex: 460–490 nm and λem: 500–550 nm) was recorded every 5–10 min for 48 h.
# ThT fluorescence curves were fitted to a sigmoidal function in GraphPad Prism (version 10, San Diego, CA, USA) using the following equation:
# Y=Top/1+expV50–X/Slope , where Y is the ThT fluorescence intensity, X is time (h), Top is the maximum fluorescence intensity, V50 is the time to reach 50% of Top, and Slope describes the steepness of the aggregation transition. Baseline fluorescence at the start of the measurements was relatively low across samples and was not separately fitted. In samples showing early increases in fluorescence, the aggregation trajectory was modeled directly without introducing an independent baseline parameter.
# The V50 value obtained from each replicate was used as the aggregation t 1/2 for statistical analysis.
# To evaluate the effect of compounds on the extent of aggregation, the AUC was calculated for each replicate ThT fluorescence curve using GraphPad Prism. AUC values were then normalized to the mean AUC of the untreated control group and expressed as “aggregation (% of control),” serving as an indirect and comparative measure of fibril formation.
# Figure S11. Confocal imaging of ThT-stained aggregates formed in the presence of PUR and OLC (corresponding to Figure 3). At the end of the ThT aggregation assay, reaction mixtures containing WT or mutant R2R3 tau peptides (P301L, V287I, N279K), incubated in the absence (CTL) or presence of 10 µM PUR or OLC, were collected from assay wells, embedded in 0.05% low-melting agarose, and imaged. ThT fluorescence was acquired using a Yokogawa Cell Voyager 7000S high-content imaging system equipped with a 20× objective (Ex: 460–490 nm, Em: 500–550 nm) and analyzed with Signals Image Artist (Revvity). […] Scale bar: 20 μm.
# [1] = molecular target: T1, preformed R2R3 (WT) fibrils (Homo sapiens, UniProt P10636); assay: Elongation of preformed R2R3 (WT) fibrils, ThT; format: biochemical; details: R2R3 WT pre-aggregated 24 h, compound 10 μM; for ThT-stained aggregates from post-treatment samples, confocal imaging: further 24 h
# T1 construct: Peptides spanning R2R3—including PHF6 and PHF6*; purchased ProteoGenix (Schiltigheim, France); host or cells: chemical synthesis (custom peptide)
# T1 sequence (P10636 592-653 limits assumed): as the sequence (P10636 592-653 N596K) above, with K5N counted along it
# Protocol: Peptides were pre‐aggregated for 24 h with aggregation kinetics monitored by ThT fluorescence, after which 10 μM PUR or OLC was added, followed by an additional 24–30 h of incubation (Figure 4a). Aggregation kinetics was monitored by ThT fluorescence, and elongation was quantified as the AUC following compound addition, normalized to each replicate's maximum pre‐treatment fluorescence (Figure 4b). […] WT peptide fibril elongation was reduced to 15.5 ± 2.8% (PUR) and 45.2 ± 3.2% (OLC), and P301L peptide fibril elongation was limited to 31.8 ± 0.6% (PUR) and 85.6 ± 2.2% (OLC) (Figure 4b). Fluorescence microscopy imaging further confirmed the presence of reduced ThT‐positive aggregates following the addition of PUR and OLC (Figure S12). Similar inhibition trends, with PUR outperforming OLC, were also observed for V287I and N279K peptides (Figure S12).
# FIGURE 4 Purpurin (PUR) and oleocanthal (OLC) inhibit elongation of preformed wild‐type (WT) and P301L tau fibrils. (a) The thioflavin T (ThT) fluorescence kinetics of pre‐aggregated R2R3 (WT and P301L) tau peptides treated with PUR or OLC (10 μM). Peptides were first allowed to aggregate for 24 h, followed by compound addition and continued incubation for an additional 24–30 h. Vertical dashed lines indicate the time point of compound addition. Curves are normalized to each replicate's maximum pre‐treatment ThT fluorescence. Source data are provided in the Data Availability Statement section. Mean ± SEM (n ≥ 3). (b) Aggregation levels post‐treatment, expressed as a percentage of control (untreated fibrils), calculated from the area under the curve after compound addition. Mean ± SEM (n ≥ 3). ***p < 0.001, **p < 0.01, one‐way ANOVA (Tukey's post hoc test).
# Figure S12. Confocal imaging of ThT-stained aggregates from post-treatment samples in Figure 4. R2R3 (WT and P301L) tau peptides were incubated for 24 h to allow initial aggregation, followed by the addition of PUR or OLC (10 µM). After a further 24 h, reaction mixtures from compound-treated wells were collected, embedded in 0.05% low-melting agarose, and processed for imaging as described in Figure S11. […] Scale bar: 50 μm.
# [2] = system: Tau RD P301S FRET Biosensor cells; assay: Biosensor cells treated with compound alone, no exogenous seeds; format: cell-based; details: 48 h
# Protocol: Figure S17. […] Tau RD P301S FRET Biosensor cells were treated with PUR or OLC at the indicated concentrations for 48 h in the absence of any exogenous tau seeds or aggregation mixtures. Cells were then imaged under the same conditions described in Figure 5 to assess spontaneous FRET signal (CFP/YFP inclusions) as a readout of intracellular tau aggregation. […] Scale bar: 100 µm.
# R2R3 (V287I) tau peptide = R2R3 (V287I) tau peptide (Homo sapiens, UniProt P10636, V604I); assay: Atomic force microscopy of R2R3 (V287I) aggregates; format: biochemical; details: compound 10 μM, 48 h
# Sequence of R2R3 (V287I) tau peptide (P10636 592-653 V604I): as the sequence (P10636 592-653 N596K) above, with K5N, V13I counted along it
# Protocol: Aggregates collected after 48 h of aggregation were processed for AFM analysis as described previously (Annadurai, Malina, Malohlava, et al., [2022]).
Compound,"aggregation (% of control), AUC of ThT fluorescence (R2R3 (N279K) tau peptide; R2R3 N279K 50 μM, compound 0.1 μM)","aggregation (% of control), AUC of ThT fluorescence (R2R3 (N279K) tau peptide; R2R3 N279K 50 μM, compound 1 μM)","aggregation, ThT fluorescence (R2R3 (N279K) tau peptide; R2R3 N279K 50 μM, compound 10 μM)","ThT-stained aggregates, confocal imaging (R2R3 (N279K) tau peptide; compound 10 μM)","fibril elongation, aggregation post-treatment as percentage of control (AUC after compound addition) ([1]; further 24–30 h)","ThT-stained aggregates from post-treatment samples, confocal imaging [1]",induction of endogenous tau aggregation (FRET-positive inclusions) by compound alone [2],AFM morphology of aggregates (R2R3 (V287I) tau peptide),"remaining activity at 0.1 µM (R2R3 (N279K) tau peptide; R2R3 N279K 50 μM, compound 0.1 μM, read-out: aggregation (% of control), AUC of ThT fluorescence)","remaining activity at 1 µM (R2R3 (N279K) tau peptide; R2R3 N279K 50 μM, compound 1 μM, read-out: aggregation (% of control), AUC of ThT fluorescence)","remaining activity at 10 µM ([1]; further 24–30 h, read-out: fibril elongation, aggregation post-treatment as percentage of control (AUC after compound addition))"
"C/C=C(/C=O)[C@@H](CC=O)CC(=O)OCCc1ccc(O)cc1 [OLC, oleocanthal]",74%,61%,complete aggregation suppression,marked reduction in ThT signal,45.2 ± 3.2%,either a complete absence or a marked reduction in ThT signal,No FRET-positive aggregates were detected; also recorded: no FRET‐positive inclusions were detected,no fibrillar or aggregated structures were detected,,,
"O=C1c2ccccc2C(=O)c2c(O)c(O)cc(O)c21 [PUR, purpurin]",,,,marked reduction in ThT signal,,either a complete absence or a marked reduction in ThT signal,No FRET-positive aggregates were detected; also recorded: no FRET‐positive inclusions were detected,no fibrillar or aggregated structures were detected,44%,19%,15.5 ± 2.8%
